Assay results from article PMC8691750, “Euphorbia Factor L2 ameliorates the Progression of K/BxN Serum-Induced Arthritis by Blocking TLR7 Mediated IRAK4/IKKβ/IRF5 and NF-kB Signaling Pathways” (Frontiers in Pharmacology, 2021).
Values joined by “and” are separate entries in the source; they are usually repeats but may differ in a detail not shown here. Identical values can stand only once.

Tested on: TLR signalling pathway genes
Assay: Toll-like Receptor Pathway PCR array of ankles
Assay type: in vivo, C57BL/6 mice
Conditions: for S40/SIA (fold change) / log2(fold change) S40/SIA: S40 group vs SIA group
Method: Total RNA was isolated from the right ankles using the TRIzol Reagent (Invitrogen) and purified with RNeasy Mini Kit and RNase-Free DNase Set (Qiagen). RNA quality was determined using a spectrophotometer and was reversely transcribed using Wcgene® mRNA cDNA kit. The complementary DNA was used on the Toll-like Receptor Pathway PCR Array plate (Wcgene® biotech, China).

[1] = ankles of STA mice, single-animal samples S401-S405
[2] = ankles of STA mice, single-animal samples S401-S405, relative to GAPDH
[3] = ankles, STA mice + EFL2 i.p., individual mice EFL2-1 to EFL2-4

C=C1C(OC(=O)c2ccccc2)CC2C(C=C(C)C(=O)C3(OC(C)=O)CC(C)C(OC(=O)c4ccccc4)C3C1OC(C)=O)C2(C)C (stereo not shown) [EFL2, Euphorbia factor L2]
S40/SIA (fold change) (Tlr8 mRNA): 0.1573
log2(fold change) S40/SIA (Tlr8 mRNA): -2.668
S40/SIA (fold change) (Tlr9 mRNA): 0.05745
log2(fold change) S40/SIA (Tlr9 mRNA): -4.122
S40/SIA (fold change) (Tnf mRNA): 0.271
log2(fold change) S40/SIA (Tnf mRNA): -1.884
S40/SIA (fold change) (Tnfaip3 mRNA): 0.2367
log2(fold change) S40/SIA (Tnfaip3 mRNA): -2.079
S40/SIA (fold change) (Tollip mRNA): 0.6335
log2(fold change) S40/SIA (Tollip mRNA): -0.6586
S40/SIA (fold change) (Traf6 mRNA): 0.511
log2(fold change) S40/SIA (Traf6 mRNA): -0.9687
S40/SIA (fold change) (Ube2v1 mRNA): 0.4284
log2(fold change) S40/SIA (Ube2v1 mRNA): -1.223
Rel Cт [1]: 30.17 and 31.86 and 31.19
Rela Cт [1]: 27.60 and 28.97 and 29.92
Ripk2 Cт [1]: 31.20 and 31.97 and 31.38
Tbk1 Cт [1]: 35.01 and 33.84 and 30.91
Tbp Cт [1]: 32.79 and 35.04 and 35.08 and 35.26
Ticam1 Cт [1]: 30.63 and 31.57 and 31.92 and 31.40
Ticam2 Cт [1]: 31.98 and 32.33 and 32.54 and 32.28
Tirap Cт [1]: 31.54 and 33.23 and 32.87
Tlr1 Cт [1]: 31.47 and 31.48 and 31.36 and 33.05
Tlr2 Cт [1]: 29.79 and 30.45 and 30.70
Tlr3 Cт [1]: 31.62 and 33.01 and 32.92 and 28.89
Tlr4 Cт [1]: 29.41 and 30.97 and 30.43 and 30.84
Tlr5 Cт [1]: 33.11 and 33.16 and 33.55 and 34.74
Tlr6 Cт [1]: 32.61 and 34.42 and 28.05
Tlr7 Cт [1]: 33.17 and 34.60 and 34.75
Tlr8 Cт [1]: 31.72 and 32.87
Tlr9 Cт [1]: 33.32 and 37.49
Tnf Cт [1]: 33.75 and 35.02 and 34.91
Tnfaip3 Cт [1]: 31.00 and 33.42 and 32.49 and 32.20
Tnfrsf1a Cт [1]: 27.55 and 28.63 and 28.76
Tollip Cт [1]: 29.42 and 30.42 and 30.55
Tradd Cт [1]: 31.88 and 32.32 and 32.17 and 32.45
Traf6 Cт [1]: 30.31 and 30.69 and 31.10 and 30.54
Ube2n Cт [1]: 27.18 and 28.39 and 28.43 and 28.55
Ube2v1 Cт [1]: 26.90 and 29.51 and 28.01 and 27.92
Rel fold-GAPDH [2]: 0.005407 and 0.004928 and 0.005486
Ripk2 fold-GAPDH [2]: 0.002639 and 0.004565 and 0.002897
Tlr2 fold-GAPDH [2]: 0.007046 and 0.01307 and 0.007729
Tlr8 fold-GAPDH [2]: 0.001839 and 0.001034
Tnf fold-GAPDH [2]: 0.0004529 and 0.0005528 and 0.0004186
Tnfaip3 fold-GAPDH [2]: 0.003028 and 0.001676 and 0.002239 and 0.001643
Tollip fold-GAPDH [2]: 0.009094 and 0.01333 and 0.008592
Becn1 relative expression to GAPDH [3]: 0.001891 and 0.007192 and 0.004096
Btk relative expression to GAPDH [3]: 0.001831 and 0.004678 and 0.001063 and 0.002403
Casp8 relative expression to GAPDH [3]: 0.01358 and 0.009475 and 0.01634
Ccl2 relative expression to GAPDH [3]: 0.00629 and 0.0002036 and 0.01529
Ccl11 relative expression to GAPDH [3]: 0.008836 and 0.01327 and 0.005579 and 0.01036
Cd86 relative expression to GAPDH [3]: 0.0005777 and 0.0007714 and 0.0003428 and 0.0007215
Chuk relative expression to GAPDH [3]: 0.01087 and 0.008829 and 0.008767
Clec4e relative expression to GAPDH [3]: 0.002249 and 0.0004993 and 4.1493e-5 and 0.0002637
Cxcl10 relative expression to GAPDH [3]: 2.1064e-5
Elk1 relative expression to GAPDH [3]: 0.005652 and 0.006734 and 0.002589 and 0.006009
Fadd relative expression to GAPDH [3]: 0.0009207 and 0.00158 and 0.0009332 and 0.001977
Hras1 relative expression to GAPDH [3]: 0.02746 and 0.02268 and 0.01475 and 0.02419
Hspd1 relative expression to GAPDH [3]: 0.02518 and 0.003019 and 0.01313 and 0.02796
IRF5 relative expression to GAPDH [3]: 0.004692 and 0.004033 and 0.001353 and 0.004631
Il1b relative expression to GAPDH [3]: 0.0009616 and 0.0008 and 0.0006699 and 0.005996
Il6 relative expression to GAPDH [3]: 0.0008677 and 0.0003997 and 0.0006556 and 0.002971
Il10 relative expression to GAPDH [3]: 0.0002257 and 7.048e-5 and 9.932e-5 and 0.0001425
Ilr1 relative expression to GAPDH [3]: 0.01561 and 0.01023 and 0.00774 and 0.01383
Irak2 relative expression to GAPDH [3]: 0.004831 and 0.004355 and 0.002516 and 0.003024
Irak3 relative expression to GAPDH [3]: 0.02176 and 0.01462 and 0.00868 and 0.01639
Irf1 relative expression to GAPDH [3]: 0.008232 and 0.006938
Irf3 relative expression to GAPDH [3]: 0.01143 and 0.004857 and 0.01116
Jun relative expression to GAPDH [3]: 0.0443 and 0.03642 and 0.03036 and 0.04078
Ly96 relative expression to GAPDH [3]: 0.008818 and 0.008037 and 0.003545 and 0.00648
